The values below come from patent publication US20170354639A1, “DITERPENOID DERIVATIVES AND METHODS OF USE THEREOF” (Biogen MA Inc., priority 2014, published 2017).

Bounds are passed on as bounds.

A word on the EC50: it is the midpoint of the concentration-response curve. Read a low EC50 as greater potency.

The assay deals with Nrf2-Keap1 (Homo sapiens, UniProt Q14145). The experiment in a line: DiscoveRx PathHunter Nrf2-Keap1 nuclear translocation functional assay (agonist format). The class given is cell-based. The settings on record: in duplicate, agonist mode; for EC50: 10 concentrations, 3-fold serial dilutions, 30 μM top concentration, normalized to CDDO methyl ester and vehicle. As to the method:
DiscoveRx PathHunter® Nrf2-Keap1 Functional Assay
DiscoveRx's Nrf2-Keapl translocation assay was used to profile compounds. Primary Screening was performed in duplicate at a single concentration of 10 μM and EC50 determinations were performed in duplicate at 10 concentrations with 3-fold serial dilutions at a 30 μM top concentration or an otherwise specified top concentration.
The PathHunter® Nuclear Translocation assay detects translocation of a target protein to, or from, the nucleus. In this system, Prolink™ (PK), a small enzyme fragment, is fused to the protein of interest and Enzyme Acceptor (EA) is localized in the nucleus. Activation of the signaling pathway induces the target protein to either transit into the nucleus, thus forcing complementation of the PK and EA fragments, or out of the nucleus, hindering complementation of the fragments.
Cell handling: PathHunter Pathway cell lines were expanded from freezer stocks according to standard procedures. 5000 cells were seeded in Cell Plating Reagent 0 (containing 1% FBS) to a total volume of 20 μL into white walled, 384-well microplates and incubated for the overnight prior to testing.
Agonist format: For Agonist determination, cells were incubated with sample to induce response. Dilution of sample stocks was performed to generate 100× sample in DMSO. Intermediate dilution of sample stocks was performed to generate 5× sample in assay buffer (Cell Plating Reagent 0 containing 1% FBS). 5 μL of 5× sample was added to cells and incubated at room temperature for 6 hours. Vehicle concentration was 1%.
Signal detection: Assay signal was generated through a single addition of 25 μL (100% v/v) of PathHunter Flash Detection reagent, followed by a one hour incubation at room temperature. Microplates were read following signal generation with a PerkinElmer Envision™ instrument for chemiluminescent signal detection.
Data analysis: Compound activity was analyzed using CBIS data analysis suite (ChemInnovation, CA). For agonist mode assays, percentage activity was calculated using the following formula: % Activity=100%×(mean RLU of test sample−mean RLU of vehicle control)/(mean MAX RLU control ligand−mean RLU of vehicle control). For EC50 determination, a control agonist dose response curve was generated in the Keap 1-Nrf2 biosensor assay, data was normalized to the maximal and minimal response observed in the presence of the control ligand and vehicle respectively. CDDO methyl ester was used as a control compound. Compounds were tested in the agonist mode of the assay and data was normalized to the maximal and minimal response observed in the presence of control ligand and vehicle.

Where [1] appears, read: single concentration of 10 μM, 6 hours, normalized to control ligand (CDDO methyl ester) and vehicle.
[2] abbreviates: 6 h, single concentration of 10 μM, normalized to control ligand (CDDO methyl ester) and vehicle.

Sequence of Nrf2-Keap1 (Q14145 whole entry): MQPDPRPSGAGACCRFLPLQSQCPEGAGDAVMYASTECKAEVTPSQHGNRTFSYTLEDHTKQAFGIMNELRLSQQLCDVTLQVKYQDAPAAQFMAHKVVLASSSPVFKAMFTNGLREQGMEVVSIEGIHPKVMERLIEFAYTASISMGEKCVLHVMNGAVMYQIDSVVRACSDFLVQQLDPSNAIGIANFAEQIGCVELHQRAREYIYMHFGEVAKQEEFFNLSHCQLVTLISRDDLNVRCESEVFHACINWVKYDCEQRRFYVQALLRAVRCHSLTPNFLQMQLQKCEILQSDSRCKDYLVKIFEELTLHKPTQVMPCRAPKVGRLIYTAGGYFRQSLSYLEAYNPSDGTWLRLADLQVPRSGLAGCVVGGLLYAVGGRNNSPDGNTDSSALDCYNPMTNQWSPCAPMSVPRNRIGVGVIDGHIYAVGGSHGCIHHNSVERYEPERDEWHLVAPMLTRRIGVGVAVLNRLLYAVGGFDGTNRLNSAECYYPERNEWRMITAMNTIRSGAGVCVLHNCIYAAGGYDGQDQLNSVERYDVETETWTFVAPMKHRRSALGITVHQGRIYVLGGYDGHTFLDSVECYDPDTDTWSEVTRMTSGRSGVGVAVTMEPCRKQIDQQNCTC

Turning to `C=C1CC[C@@H]2[C@]3(C)COS(=O)O[C@@H]3CC[C@@]2(C)[C@@H]1C/C=C1/C(=O)OC[C@H]1NC(=O)OC` (single isomer, unassigned) [Example 30], the activation at 10 µM under setting [1] lay within 51 to 100%. Take `C=C1CC[C@@H]2[C@@H](C)[C@H](OC)CC[C@@]2(C)[C@@H]1C/C=C1/C(=O)OC[C@H]1O` [Example 16, (S,E)-4-hydroxy-3-(2-((1R,4aR,5R,6R,8aR)-6-methoxy-5,8a-dimethyl-2-methylenedecahydronaphthalen-1-yl)ethylidene)dihydrofuran-2(3H)-one]: the EC50 is below 0.5 µM. Under setting [2], this compound displayed an activation at 10 µM above 100%.

With `C=C1CC[C@H]2[C@@](C)(CCC3=NOC[C@]32C)[C@@H]1C/C=C1/C(=O)OC[C@H]1O` [Example 11, (S,E)-3-(2-((5aS,6R,9aS,9bS)-5a,9b-dimethyl-7-methylene-1,4,5,5a,6,7,8,9,9a,9b-decahydronaphtho[2,1-c]isoxazol-6-yl)ethylidene)-4-hydroxydihydrofuran-2(3H)-one], the EC50 fell in the range of 0.5 to 2 µM. Moreover, under setting [2], the activation at 10 µM was above 100%. Turning to `C=C1CC[C@@H]2[C@]3(C)COS(=O)O[C@@H]3CC[C@@]2(C)[C@@H]1C/C=C1/C(=O)OCC1NC(=O)CO` (single isomer, unassigned) [Example 41B], the EC50 lay within 0.5 to 2 µM. In turn, `CC1(C)CCC[C@@]2(C)[C@H]1CCC1(CC1)[C@@H]2CC/C=C1\C(=O)OC[C@H]1NC=O` [Example 34, N-((S,Z)-5-oxo-4-(3-((l′S,4a′S,8a′S)-5′,5′,8a′-trimethyloctahydro-1′H-spiro[cyclopropane-1,2′-naphthalen]-1′-yl)propylidene)tetrahydrofuran-3-yl)formamide] registered an activation at 10 µM under setting [2] of 30 to 50%. The compound `C=C1CC[C@@H]2[C@]3(C)COS(=O)O[C@@H]3CC[C@@]2(C)[C@@H]1C/C=C1/C(=O)OCC1NC(=O)CO` (single isomer, unassigned) [Example 41A] displayed an EC50 above 2 µM. In the case of `C=C1CC[C@@H]2[C@]3(C)COS(=O)O[C@@H]3CC[C@@]2(C)[C@@H]1C/C=C1/C(=O)OC[C@@H]1NC(=O)OC` (single isomer, unassigned) [Example 31], the EC50 was 0.5 to 2 µM. Further, the activation at 10 µM under setting [1] is above 100%. As for `C=C1CC[C@H]2[C@@](C)(CC[C@@]3(C)O[S@@](=O)OC[C@@]23C)[C@@H]1C/C=C1/C(=O)OC[C@H]1O` [Example 13, (S,E)-4-hydroxy-3-(2-((3S,4aR,6aS,7R,10aS,10bR)-4a,6a,10b-trimethyl-8-methylene-3-oxidodecahydro-1H-naphtho[2,1-d][1,3,2]dioxathiin-7-yl)ethylidene)dihydrofuran-2(3H)-one], the EC50 was 0.5 to 2 µM. Besides, the activation at 10 µM under setting [2] was above 100%. In turn, `CO[C@@H]1CC[C@@]2(C)C(C/C=C3/C(=O)OC[C@H]3O)=C(C)CC[C@@H]2[C@H]1C` [Example 18, (S,E)-4-hydroxy-3-(2-((4aR,5R,6R,8aR)-6-methoxy-2,5,8a-trimethyl-3,4,4a,5,6,7,8,8a-octahydronaphthalen-1-yl)ethylidene)dihydrofuran-2(3H)-one] came in with an activation at 10 µM under setting [2] of 30 to 50%. With `CC(=O)N[C@@H]1COC(=O)/C1=C\C[C@H]1C2(CC[C@H]3C(C)(C)CCC[C@@]31C)CC2` [Example 27, N—((S,Z)-5-oxo-4-(2-((1′S,4a′S,8a′S)-5′,5′,8a′-trimethyloctahydro-1′H-spiro[cyclopropane-1,2′-naphthalen]-1′-yl)ethylidene)tetrahydrofuran-3-yl)acetamide], the activation at 10 µM under setting [2] fell in the range of 30 to 50%. As for `C=C1CC[C@@H]2[C@]3(C)COS(=O)O[C@@H]3CC[C@@]2(C)[C@@H]1C/C=C1/C(=O)OC[C@@H]1NC=O` (stereo partly drawn) [Example 21, N-((3R,E)-4-(2-((4aR,6aS,7R,10aS,10bR)-6a,10b-dimethyl-8-methylene-3-oxidodecahydro-1H-naphtho[2,1-d][1,3,2]dioxathiin-7-yl)ethylidene)-5-oxotetrahydrofuran-3-yl)formamide], the EC50 is above 2 µM. The same compound yielded an activation at 10 µM under setting [2] of 51 to 100%. In turn, `CC1(C)CCC[C@@]2(C)[C@H]1CCC1(CC1)[C@@H]2C/C=C1\C(=O)OCC1O` (stereo partly drawn) [Example 23, (Z)-4-hydroxy-3-(2-((1′S,4a′S,8a′S)-5′,5′,8a′-trimethyloctahydro-1′H-spiro[cyclopropane-1,2′-naphthalen]-1′-yl)ethylidene)dihydrofuran-2(3H)-one] registered an activation at 10 µM under setting [2] of 51 to 100%. Same read-out and setting: next, `CC1(C)CCC[C@@]2(C)[C@H]1CCC1(CC1)[C@@H]2C/C=C1/C(=O)OC[C@H]1NC=O` [Example 24, N—((S,E)-5-oxo-4-(2-((1′S,4a′S,8a′S)-5′,5′,8a′-trimethyloctahydro-1′H-spiro[cyclopropane-1,2′-naphthalen]-1′-yl)ethylidene)tetrahydrofuran-3-yl)formamide]: 51 to 100%. As for `C=C1CC[C@@H]2[C@]3(C)COCO[C@@H]3CC[C@@]2(C)[C@@H]1C/C=C1/C(=O)OCC1NC=O` (single isomer, unassigned) [Example 39B], the “% Activation @ 10 μM” value under setting [1] is on record as “B (B: 51 to 100%)”. Under setting [2], `CC(=O)N[C@@H]1COC(=O)/C1=C/C[C@H]1C2(CC[C@H]3C(C)(C)CCC[C@@]31C)CC2` [Example 26, N—((S,E)-5-oxo-4-(2-((1′S,4a′S,8a′S)-5′,5′,8a′-trimethyloctahydro-1′H-spiro[cyclopropane-1,2′-naphthalen]-1′-yl)ethylidene)tetrahydrofuran-3-yl)acetamide] showed an activation at 10 µM of 30 to 50%. For `C=C1CC[C@H]2[C@@](C)(CC[C@@](C)(O)[C@@]2(C)CO)[C@@H]1C/C=C1/C(=O)OC[C@H]1O` [Example 7, (S,E)-4-hydroxy-3-(2-((1R,4aS,5R,6R,8a5)-6-hydroxy-5-(hydroxymethyl)-5,6,8a-trimethyl-2-methylenedecahydronaphthalen-1-yl)ethylidene)dihydrofuran-2(3H)-one], the activation at 10 µM under setting [2] was in the range of 51 to 100%. Take `C=C1CC[C@@H]2[C@]3(C)COCO[C@@H]3CC[C@@]2(C)[C@@H]1C/C=C1/C(=O)OCC1NC(=O)COC` (single isomer, unassigned) [Example 46B]: the EC50 is above 2 µM. Still for that read-out and setting: the result for `C=C1CC[C@@H]2[C@@H](C)[C@@](O)(C(F)(F)F)CC[C@@]2(C)[C@@H]1C/C=C1/C(=O)OC[C@H]1O` [Example 42B, (S,E)-4-hydroxy-3-(2-((1R,4aR,5R,6R,8aR)-6-hydroxy-5,8a-dimethyl-2-methylene-6-(trifluoromethyl)decahydronaphthalen-1-yl)ethylidene)dihydrofuran-2(3H)-one] reads below 0.5 µM.

For `CC(=O)N[C@@H]1COC(=O)/C1=C/CC[C@H]1C2(CC[C@H]3C(C)(C)CCC[C@@]31C)CC2` [Example 35, N-((S,E)-5-oxo-4-(3-((1′S,4a′S,8a′S)-5′,5′,8a′-trimethyloctahydro-1′H-spiro[cyclopropane-1,2′-naphthalen]-1′-yl)propylidene)tetrahydrofuran-3-yl)acetamide], the EC50 was above 2 µM. Moreover, the activation at 10 µM under setting [2] fell in the range of 51 to 100%. Compound `C=C1CC[C@@H]2[C@]3(C)COCO[C@@H]3CC[C@@]2(C)[C@@H]1C/C=C1/C(=O)OCC1NC(=O)COC` (single isomer, unassigned) [Example 46A] came in with an EC50 above 2 µM.

On to `C=C1CC[C@@H]2[C@]3(C)COS(=O)O[C@@H]3CC[C@@]2(C)[C@@H]1C/C=C1\C(=O)OC[C@@H]1NC=O` (stereo partly drawn) [Example 29, N-((3R,Z)-4-(2-((4aR,6aS,7R,10aS,10bR)-6a,10b-dimethyl-8-methylene-3-oxidodecahydro-1H-naphtho [2,1-d][1,3,2]dioxathiin-7-yl)ethylidene)-5-oxotetrahydrofuran-3-yl)formamide], for which the activation at 10 µM under setting [2] lay within 51 to 100%. Compound `C=C1CC[C@@H]2[C@@H](C)[C@](O)(C(F)(F)F)CC[C@@]2(C)[C@@H]1C/C=C1/C(=O)OCC1NC=O` (single isomer, unassigned) [Example 44B] showed an EC50 of 0.5 to 2 µM. For the compound `C=C1CC[C@@H]2[C@]3(C)COS(=O)O[C@@H]3CC[C@@]2(C)[C@@H]1C/C=C1/C(=O)OCC1NC=O` (stereo partly drawn) [Example 19, N-((E)-4-(2-((4aR,6aS,7R,10aS,10bR)-6a,10b-dimethyl-8-methylene-3-oxidodecahydro-1H-naphtho[2,1-d][1,3,2]dioxathiin-7-yl)ethylidene)-5-oxotetrahydrofuran-3-yl)formamide], the activation at 10 µM under setting [2] fell in the range of 51 to 100%. With `C=C1CC[C@@H]2[C@]3(C)COCO[C@@H]3CC[C@@]2(C)[C@@H]1C/C=C1/C(=O)OCC1NC(C)=O` (single isomer, unassigned) [Example 45A], the EC50 is above 2 µM.
